Test results reported in publication PMC8170916, “Sublingual AKBA Exerts Antidepressant Effects in the Aβ-Treated Mouse Model” (Biomolecules, 2021).

Key:
[1] = test system: noradrenaline (NA); experiment: Noradrenaline quantification in PFC and HIPP by HPLC with electrochemical detection; assay type: in vivo; settings: mice 7 days after icv Aβ 4 µM, sublingual AKBA 5 mg/kg 30 min earlier
Description: (§1) All behavioral experiments were conducted at 5 or 30 min after sublingual administrations of AKBA or vehicle in either SHAM or Aβ-treated mice. Based upon behavioral outcomes observed, neurochemical and biochemical quantifications were performed 30 min after AKBA or vehicle administration in either SHAM or Aβ-treated mice.
(§2) Anesthetized animals were sacrificed by cervical dislocation. Brains were immediately removed and kept on ice for dissection of PFC and HIPP, according to the atlas of Paxinos and Franklin. Tissues were frozen and stored at −80 °C until analyses were carried out. Samples (PFC and HIPP) were homogenized (1:10 w/v) at 4 °C using a PBS buffer containing a 1:100 protease and phosphatase inhibitor cocktail (HALT inhibitors, Thermo Fisher Scientific, Cleveland, OH, USA) for biochemical analyses or perchloric acid 0.1 M for neurochemical analyses. Homogenates were centrifuged at 13,000× g at 4 °C for 20 min, and supernatants were used for further determinations.
5-HT, noradrenaline (NA), and KYN levels were measured in the PFC and HIPP of mice by HPLC coupled with an electrochemical detector (Ultimate ECD, Thermo Scientific Dionex, Milan, Italy) as already reported. Separation was performed by a LC18 reverse phase column (Kinetex, 150 mm × 3.0 mm, ODS 5 μm; Phenomenex, Castel Maggiore-Bologna, Italy). The detection was accomplished by a thin layer amperometric cell (Thermo Scientific Dionex, Milan, Italy) with a 5 mm diameter glassy carbon electrode at a working potential of 400 mV (5-HT and NA) or 0.750 mV (KYN) vs. Pd. The mobile phase consisted of an aqueous buffer containing 75 mM NaH2PO4, 1.7 mM octane sulfonic acid, 0.3 mM EDTA, and acetonitrile 10%, buffered at pH 3.0. […] GLU concentrations were determined by HPLC coupled with fluorescence detection (emission length 460 nm; excitation length 340 nm), as previously published. […] Results were analyzed by Borwin software (version 1.50; Jasco, Cremella, Italy) and the amino acid concentration was expressed as µM. All data were normalized for total area weight and were expressed as concentration/mg of tissue.

[2] = test system: APPswe/PS1dE9; design: method as in PMID 32109514; settings: AD genetic model; cited from earlier work
[3] = test system: NF-kB p65; experiment: Western blotting quantification of NF-kB p65 in PFC and HIPP; assay type: in vivo; settings: mice 7 days after icv Aβ 4 µM, sublingual AKBA 5 mg/kg 30 min earlier
Description: as §1, §2
The total amount of proteins was measured in homogenates by using Pierce BCA Assay (Thermo Fisher Scientific, Cleveland, OH, USA). Forty µg of the total lysate protein were separated by SDS-PAGE precast gels (Bio-Rad Laboratories Inc., Segrate (MI), Italy), transferred onto nitrocellulose membranes (Bio-Rad Laboratories Inc, Segrate (MI), Italy) and then blocked for 1 h in blocking buffer (SigmaAldrich, Milan, Italy). Rabbit polyclonal antibody against GFAP (Dako Products, USA; 1:2000), rabbit monoclonal antibody against CD11b (Abcam, Cambridge, MA, USA; ab133357, 1:1000) and mouse monoclonal antibody against NF-kB p65 (Santa Cruz Biotechnology, Dallas, Texas, USA; 1:2000) were used to incubate the membranes overnight at 4 °C. After HRP-conjugated specific antibody incubation, ECL reagent (Bio-Rad Laboratories Inc., Segrate (MI), Italy) was added to the immune complex and chemiluminescence was detected by ChemiDoc MP system (Bio-Rad Laboratories Inc., Segrate (MI), Italy). Optical densities of the bands were measured using ImageJ software (http://rsb.info.nih.gov/ij/ accessed on 15 March 2021) and normalized against bands relative to β-actin (1:5000, Abcam, Cambridge, UK).

SMILES: CC(=O)O[C@@H]1CC[C@@]2(C)[C@@H](CC[C@]3(C)[C@@H]2C(=O)C=C2[C@@H]4[C@@H](C)[C@H](C)CC[C@]4(C)CC[C@]23C)[C@@]1(C)C(=O)O [AKBA, 3-O-acetyl-11-keto-β-boswellic acid]
- NA levels in the HIPP ([1]; HIPP): further increase compared to SHAM mice
- NA levels in the PFC ([1]; PFC): significantly increased NA levels
- Cerebral amyloid beta (Aβ) production and plaque burden in APPswe/PS1dE9 [2]: decrease cerebral amyloid beta (Aβ) production and plaque burden
- Cognitive impairments in APPswe/PS1dE9 [2]: able to reverse cognitive impairments
- NF-kB p65 content in the HIPP (optical density normalized to actin) ([3]; HIPP): prevented such an increase
- NF-kB p65 levels in the PFC (optical density normalized to actin) ([3]; PFC): prevented such an increase
